Measured values as given in PubChem BioAssay (NCI).
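Each compound was tested at five concentrations against cells in 96-well plates for 48 hours. TGI marks complete inhibition of growth.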

Tests used:
Test in all cases: NCI tumour cell line growth inhibition, 48 h
786-0 renal = test system: 786-0 renal
A498 renal = test system: A498 renal
A549 NSCLC = test system: A549 NSCLC
ACHN renal = test system: ACHN renal
CAKI-1 renal = test system: CAKI-1 renal
CCRF-CEM leukemia = test system: CCRF-CEM leukemia
COLO 205 colon = test system: COLO 205 colon
DU-145 prostate = test system: DU-145 prostate
EKVX NSCLC = test system: EKVX NSCLC
HCC-2998 colon = test system: HCC-2998 colon
HCT-116 colon = test system: HCT-116 colon
HCT-15 colon = test system: HCT-15 colon
HL-60(TB) leukemia = test system: HL-60(TB) leukemia
HOP-62 NSCLC = test system: HOP-62 NSCLC
HOP-92 NSCLC = test system: HOP-92 NSCLC
HT29 colon = test system: HT29 colon
IGROV1 ovarian = test system: IGROV1 ovarian
K-562 leukemia = test system: K-562 leukemia
KM12 colon = test system: KM12 colon
LOX IMVI melanoma = test system: LOX IMVI melanoma
M14 melanoma = test system: M14 melanoma
MALME-3M melanoma = test system: MALME-3M melanoma
MCF7 breast = test system: MCF7 breast
MDA-MB-231 breast = test system: MDA-MB-231 breast
MDA-MB-435 = test system: MDA-MB-435
MDA-N = test system: MDA-N
MOLT-4 leukemia = test system: MOLT-4 leukemia
NCI-H226 lung = test system: NCI-H226 lung
NCI-H23 lung = test system: NCI-H23 lung
NCI-H460 lung = test system: NCI-H460 lung
NCI-H522 lung = test system: NCI-H522 lung
NCI/ADR-RES ovarian = test system: NCI/ADR-RES ovarian
OVCAR-3 ovarian = test system: OVCAR-3 ovarian
OVCAR-4 ovarian = test system: OVCAR-4 ovarian
OVCAR-5 ovarian = test system: OVCAR-5 ovarian
OVCAR-8 ovarian = test system: OVCAR-8 ovarian
PC-3 prostate = test system: PC-3 prostate
RXF 393 renal = test system: RXF 393 renal
SF-268 CNS = test system: SF-268 CNS
SF-295 CNS = test system: SF-295 CNS
SF-539 CNS = test system: SF-539 CNS
SK-MEL-28 melanoma = test system: SK-MEL-28 melanoma
SK-MEL-5 melanoma = test system: SK-MEL-5 melanoma
SK-OV-3 ovarian = test system: SK-OV-3 ovarian
SN12C renal = test system: SN12C renal
SNB-19 CNS = test system: SNB-19 CNS
SNB-75 CNS = test system: SNB-75 CNS
SR leukemia = test system: SR leukemia
SW-620 colon = test system: SW-620 colon
T-47D breast = test system: T-47D breast
TK-10 renal = test system: TK-10 renal
U251 CNS = test system: U251 CNS
UACC-257 melanoma = test system: UACC-257 melanoma
UACC-62 melanoma = test system: UACC-62 melanoma
HS 578T breast = test system: HS 578T breast
RPMI-8226 leukemia = test system: RPMI-8226 leukemia
SK-MEL-2 melanoma = test system: SK-MEL-2 melanoma
UO-31 renal = test system: UO-31 renal

CC(=O)OCC1OC(n2c(-c3ccccc3)c(C(C)=O)c(-c3ccc(Cl)cc3)c(C#N)c2=S)C(OC(C)=O)C(OC(C)=O)C1OC(C)=O (centres undefined)
TGI (786-0 renal): > 100 µM
TGI (A498 renal): > 100 µM
TGI (A549 NSCLC): > 100 µM
TGI (ACHN renal): > 100 µM
TGI (CAKI-1 renal): > 100 µM
TGI (CCRF-CEM leukemia): > 100 µM
TGI (COLO 205 colon): > 100 µM
TGI (DU-145 prostate): > 100 µM
TGI (EKVX NSCLC): > 100 µM
TGI (HCC-2998 colon): > 100 µM
TGI (HCT-116 colon): > 100 µM
TGI (HCT-15 colon): > 100 µM
TGI (HL-60(TB) leukemia): > 100 µM
TGI (HOP-62 NSCLC): > 100 µM
TGI (HOP-92 NSCLC): 71.5 µM
TGI (HT29 colon): > 100 µM
TGI (IGROV1 ovarian): > 100 µM
TGI (K-562 leukemia): > 100 µM
TGI (KM12 colon): > 100 µM
TGI (LOX IMVI melanoma): > 100 µM
TGI (M14 melanoma): > 100 µM
TGI (MALME-3M melanoma): > 100 µM
TGI (MCF7 breast): > 100 µM
TGI (MDA-MB-231 breast): > 100 µM
TGI (MDA-MB-435): > 100 µM
TGI (MDA-N): > 100 µM
TGI (MOLT-4 leukemia): > 100 µM
TGI (NCI-H226 lung): > 100 µM
TGI (NCI-H23 lung): > 100 µM
TGI (NCI-H460 lung): > 100 µM
TGI (NCI-H522 lung): > 100 µM
TGI (NCI/ADR-RES ovarian): > 100 µM
TGI (OVCAR-3 ovarian): > 100 µM
TGI (OVCAR-4 ovarian): > 100 µM
TGI (OVCAR-5 ovarian): > 100 µM
TGI (OVCAR-8 ovarian): > 100 µM
TGI (PC-3 prostate): 8.46 µM
TGI (RXF 393 renal): > 100 µM
TGI (SF-268 CNS): > 100 µM
TGI (SF-295 CNS): > 100 µM
TGI (SF-539 CNS): > 100 µM
TGI (SK-MEL-28 melanoma): > 100 µM
TGI (SK-MEL-5 melanoma): > 100 µM
TGI (SK-OV-3 ovarian): > 100 µM
TGI (SN12C renal): > 100 µM
TGI (SNB-19 CNS): > 100 µM
TGI (SNB-75 CNS): > 100 µM
TGI (SR leukemia): > 100 µM
TGI (SW-620 colon): > 100 µM
TGI (T-47D breast): > 100 µM
TGI (TK-10 renal): > 100 µM
TGI (U251 CNS): > 100 µM
TGI (UACC-257 melanoma): > 100 µM
TGI (UACC-62 melanoma): > 100 µM

O=C(NC(CS)C(=O)O)c1cccc2c(=O)c3ccccc3[nH]c12 (centres undefined)
TGI (786-0 renal): > 100 µM
TGI (A498 renal): > 100 µM
TGI (A549 NSCLC): > 100 µM
TGI (ACHN renal): > 100 µM
TGI (COLO 205 colon): > 100 µM
TGI (DU-145 prostate): > 100 µM
TGI (EKVX NSCLC): > 100 µM
TGI (HCT-116 colon): > 100 µM
TGI (HCT-15 colon): > 100 µM
TGI (HL-60(TB) leukemia): > 100 µM
TGI (HOP-62 NSCLC): > 100 µM
TGI (HOP-92 NSCLC): > 100 µM
TGI (HS 578T breast): > 100 µM
TGI (HT29 colon): > 100 µM
TGI (IGROV1 ovarian): > 100 µM
TGI (K-562 leukemia): > 100 µM
TGI (KM12 colon): > 100 µM
TGI (LOX IMVI melanoma): > 100 µM
TGI (M14 melanoma): > 100 µM
TGI (MALME-3M melanoma): > 100 µM
TGI (MCF7 breast): > 100 µM
TGI (MDA-MB-231 breast): > 100 µM
TGI (MDA-MB-435): > 100 µM
TGI (MDA-N): > 100 µM
TGI (MOLT-4 leukemia): > 100 µM
TGI (NCI-H226 lung): > 100 µM
TGI (NCI-H23 lung): > 100 µM
TGI (NCI-H522 lung): > 100 µM
TGI (NCI/ADR-RES ovarian): > 100 µM
TGI (OVCAR-3 ovarian): > 100 µM
TGI (OVCAR-4 ovarian): > 100 µM
TGI (OVCAR-5 ovarian): > 100 µM
TGI (OVCAR-8 ovarian): > 100 µM
TGI (PC-3 prostate): > 100 µM
TGI (RPMI-8226 leukemia): > 100 µM
TGI (SF-268 CNS): > 100 µM
TGI (SF-295 CNS): > 100 µM
TGI (SK-MEL-2 melanoma): > 100 µM
TGI (SK-MEL-28 melanoma): > 100 µM
TGI (SK-MEL-5 melanoma): > 100 µM
TGI (SK-OV-3 ovarian): > 100 µM
TGI (SN12C renal): > 100 µM
TGI (SNB-19 CNS): > 100 µM
TGI (SNB-75 CNS): > 100 µM
TGI (SR leukemia): > 100 µM
TGI (SW-620 colon): > 100 µM
TGI (TK-10 renal): > 100 µM
TGI (U251 CNS): > 100 µM
TGI (UACC-62 melanoma): > 100 µM
TGI (UO-31 renal): > 100 µM
